Laboratory results published in article PMC10467082, “Anti-Toxoplasma gondii Effects of Lipopeptide Derivatives of Lycosin-I” (Toxins, 2023).
Entries after “also recorded” stand apart in the source; their conditions may differ. Square brackets hold non-standard residues; d marks the D form. Ends that are not written are not given here. Peptide text beside a SMILES is read from it. * marks the point of attachment. Lauroyl = CCCCCCCCCCCC(=O)*; Ahx = NCCCCCC(=O)O

Columns and labels:
IFN-γ = format: in vivo, mouse; conditions: 4 mg/kg, after 5 days of treatment, qRT-PCR
Description: (§1) Once T. gondii has infected a host, a number of inflammatory responses can be induced in the host to resist T. gondii invasion and proliferation. Therefore, we wanted to investigate the expression levels of anti-inflammatory and pro-inflammatory factors in the mice treated with lipopeptides. The expression levels of IFN-γ, TNF-α, IL-4 and IL-10 in the spleen tissues of mice after 5 days of treatment were determined via qRT-PCR (Figure 5). […] Compared to the PBS group, all treatment groups promoted the upregulation of the pro-inflammatory cytokines IFN-γ and TNF-α and the anti-inflammatory cytokine IL-4.
(§2) Total RNA was extracted from each sample using Total RNA Isolation Kit (ENOVA BIO Co., Ltd., Wuhan, China), in accordance with the manufacturer’s instructions. Reverse transcription of RNA into cDNA was performed using the PerfectStart Uni RT&qPCR Kit (TransGen Biotech Co., Ltd., Beijing, China) in accordance with the instructions. cDNA was used as a template for qRT-PCR using PerfectStart Uni RT&qPCR Kit (TransGen Biotech Co., Ltd., Beijing, China). Primers, listed in Table 2, were designed and synthesized by a biotechnology company (Sangon Biotech Co., Ltd., Shanghai, China). Analysis was performed using the comparative threshold cycle method (2^−∆∆Ct). The gene expression levels of genes were normalized to those of housekeeping genes (β-actin or GAPDH).

IL-10 = format: in vivo, mouse; conditions: 4 mg/kg, after 5 days of treatment, qRT-PCR
Description: as §1, §2

TNF-α = format: in vivo, mouse; conditions: 4 mg/kg, after 5 days of treatment, qRT-PCR
Description: as §1, §2

IL-4 = format: in vivo, mouse; conditions: 4 mg/kg, after 5 days of treatment, qRT-PCR
Description: as §1, §2

T. gondii tachyzoites [1] = format: cell-based, Toxoplasma gondii; conditions: 10 μM, 7 days, 500 tachyzoites per well, HFFs
Description: The HFF cells were seeded in 6-well plates (1 × 10^6 cells per well) and incubated for 48–72 h. Cells in the 6-well plates were infected with 500 fresh tachyzoites per well for 2 h. The well in which cells were not infected with tachyzoites was considered the blank control group. Cells infected with tachyzoites were then treated with Lycosin-I (10 μM), L-C12 (10 μM), L-an (10 μM), SDZ (10 μM, positive control) and DMEM (negative control), respectively. After 7 days, HFFs in the plates were washed twice with PBS, fixed with methanol for 5 min, and then stained with crystal violet for 20 min. Six-well plates were washed with running water, dried, photographed, and then the number and area of plaques were counted using Photoshop version 2020. Three independent experiments were carried out.

T. gondii tachyzoites [2] = assay: Intracellular proliferation assay of tachyzoites in HFFs; format: cell-based, Toxoplasma gondii; conditions: 10 μM, 24 h
Description: HFFs were seeded in 24-well plates (1 × 10^5 cells per well) with 14 mm coverslips and incubated for 24 h. The HFFs were infected with fresh tachyzoites at a MOI of 5 for 2 h. The HFFs were then washed twice with PBS to remove extracellular tachyzoites and then treated with Lycosin-I (5 μM, 10 μM), L-C12 (5 μM, 10 μM), L-an (5 μM, 10 μM), SDZ (10 μM, positive control) and DMEM (negative control) for 24 h each. The HFFs were then washed twice with PBS, fixed with methanol for 5 min, and then stained with Giemsa for 15 min. The coverslips were observed under a light microscope to count the number of tachyzoites in 100 parasitophorous vacuoles (PVs). Three independent experiments were carried out.

RH strain of T. gondii = format: in vivo, mouse; conditions: BALB/c mice, 1 × 10^3 tachyzoites i.p.; 4 mg/kg/day i.p. for 7 days; monitored 15 days; n = 8
Description: To evaluate the anti-T. gondii effect of lipopeptides in vivo, we established a mouse model acutely infected with the RH strain of T. gondii. Forty 8-week-old female BALB/c mice weighing 17–19 g were randomly divided into 5 groups (n = 8 per group) and intraperitoneally injected with 1 × 10^3 tachyzoites per mouse. Lycosin-I, L-C12, L-an and sulfadiazine (SDZ) were dissolved in PBS, respectively. As these peptides are small linear peptides that are easily degraded by pepsin; mice were treated with these peptides via intraperitoneal injection (the same way that the mice were infected with T. gondii) rather than oral gavage. After 4 h of infection, mice were traperitoneally injected with 4 mg/kg of Lycosin-I, L-C12, L-an and sulfadiazine solution (once a day) for 7 days. Mice in the negative control group were treated with PBS. Mice in this condition observed daily and the time of death was recorded. The experiment was approved by the Ethics Committee of the School of Basic Medicine of Central South University (approval number: 2021-KT24).

T. gondii tachyzoites [3] = assay: Invasion assay of tachyzoites into HFFs; format: cell-based, Toxoplasma gondii; conditions: tachyzoites pretreated 2 h at 10 μM, HFFs infected MOI 5 for 2 h
Description: The HFF cells were seeded in 24-well plates with 14 mm coverslips (1 × 10^5 cells per well) and incubated for 24 h. Fresh tachyzoites were obtained aseptically from the peritoneal fluid of the KM mouse acutely infected with T. gondii. The tachyzoites were treated with Lycosin-I (5 μM, 10 μM), L-C12 (5 μM, 10 μM), L-an (5 μM, 10 μM), SDZ (10 μM, positive control) and DMEM (negative control) for 2 h each. The HFFs were then infected with pre-treated tachyzoites at a multiplicity of infection (MOI) of 5 (tachyzoites/cells = 5). After 2 h, the previous complete medium was removed and the HFFs were washed twice with PBS to remove extracellular tachyzoites. They were then fixed with methanol for 5 min, and then stained with Giemsa for 15 min. The coverslips were examined under a light microscope. The invasion rate of tachyzoites was calculated by counting the number of cells invaded by tachyzoites and the total number of cells in 5 randomly selected fields. Three independent experiments were carried out.

T. gondii tachyzoites [4] = assay: Serum stability assay: serum incubation followed by trypan blue assay; format: in vitro ADME, Toxoplasma gondii; conditions: 100 μM in PBS containing 10% fetal bovine serum, 37 °C, 24 h; read-out tachyzoite mortality by trypan blue; three independent experiments
Description: (§3) To evaluate the difference of anti-T. gondii in the vitro between lipopeptides and Lycosin-I, we set up different concentration gradients, including 2.5 μM, 5 μM, 10 μM, 20 μM and 40 μM. The freshly obtained tachyzoites (3 × 10^6) were incubated with different concentrations of lipopeptides and PBS at room temperature for 2 h, then centrifuged at 3000 rbp for 8 min and the supernatant was discarded. The tachyzoite pellet was resuspended in PBS and mixed well. Then, the tachyzoite suspension was stained with 0.4% trypan blue staining solution for 5 min. Tachyzoite viability was observed under a light microscope (Motic China Group Co., Ltd., Xiamen, China), and five fields were randomly selected to calculate tachyzoite mortality. Three independent experiments were carried out.
A combination of serum incubation and a trypan blue assay was used to investigate whether or not the anti-Toxoplasma activity of lipopeptides and Lycosin-I was affected by serum. Briefly, stock solutions (1 mM) of Lycosin-I, L-C12 and L-an were diluted into 100 μM solutions in PBS containing 10% fetal bovine serum, and incubated at 37 °C for 24 h. Fresh tachyzoites were then treated with these solutions as described in the method in Section 5.3 for lipopeptide screening. Three independent experiments were carried out.

[5] = tested on: human foreskin fibroblasts (HFFs); assay: CCK-8 cell viability assay on host cells; format: cell-based; conditions: CCK-8, HFFs, 24 h; for IC50: 80-1.25 μM twofold dilution, three independent experiments, read-out: half-inhibitory concentration (IC50) on HFF viability; for cytotoxicity to HFFs: comparison with Lycosin-I where stated
Description: HFF cells were seeded in 96-well plates (1 × 10^4 cells per well). After 24 h of incubation, the previous complete medium was removed and replaced with the new complete medium containing different concentrations (80–1.25 μM, twofold serial dilution) of lipopeptides. Cells were treated with the complete medium in one well as the control group (each group was set up with three wells). After 24 h, 10 μL of CCK-8 reagent was added to each well and then incubated for 2 h. The absorbance value was measured at 450 nm using a microplate reader. Three independent experiments were carried out.

[6] = mouse serum (b5) / 10% serum, 24 h, mass spectrometry; cited from earlier work
Source text: Cationic peptides with an α-helical structure found in venoms constitute a class of antimicrobial peptides (AMPs). In this class, amphiphilic peptides with net positive charges tend to adopt an α-helix structure when in contact with a hydrophilic/hydrophobic interface (such as the membrane of microorganisms), which helps the AMPs to insert into the cell membrane and disrupt the integrity of the cell membrane. Phospholipids on cell membranes are one of the targets of transmembrane peptides with an α -helical structure. […] The serum stability of Lycosin-I was in ...

[7] = tested on: T. gondii tachyzoites (RH strain); assay: Trypan blue assay of tachyzoite mortality (lipopeptide screening); format: cell-based, Toxoplasma gondii; conditions: 2.5, 5, 10, 20, 40 μM, 2 h at room temperature
Description: as §3

H-KGWFKAMKSIAKFIAKEKLKEHL-OH [Lycosin-I]
expression of IFN-γ in spleen compared to PBS group (IFN-γ): promoted the expression | expression of IL-10 in spleen compared to PBS group (IL-10): inhibited the upregulation of IL-10 | expression of TNF-α in spleen compared to PBS group (TNF-α): promoted the expression | expression of IL-4 in spleen compared to PBS group (IL-4): promoted IL-4 expression | number and area of plaques in contrast with DMEM group (T. gondii tachyzoites [1]): significantly reduced | plaques compared to DMEM group (T. gondii tachyzoites [1]): reduced | proliferation rate of tachyzoites in HFFs (negative group = 100%) (T. gondii tachyzoites [2]; HFFs infected at MOI 5): below 55% | PVs with 16 tachyzoites (T. gondii tachyzoites [2]; proportion in 100 PVs): hard to see a PV with 16 tachyzoites | survival time of mice compared to control group (RH strain of T. gondii): significantly prolonged the survival time | inhibition of tachyzoite invasion compared with SDZ (T. gondii tachyzoites [3]): more pronounced inhibition than SDZ

CC[C@H](C)[C@H](NC(=O)[C@H](Cc1ccccc1)NC(=O)[C@H](CCCCN)NC(=O)[C@H](C)NC(=O)[C@@H](NC(=O)[C@H](CO)NC(=O)[C@H](CCCCN)NC(=O)[C@H](CCSC)NC(=O)[C@H](C)NC(=O)[C@H](CCCCN)NC(=O)[C@H](Cc1ccccc1)NC(=O)[C@H](Cc1c[nH]c2ccccc12)NC(=O)CNC(=O)[C@H](CCCCN)NC(=O)CCCCCN)[C@@H](C)CC)C(=O)N[C@@H](C)C(=O)N[C@@H](CCCCN)C(=O)N[C@@H](CCC(=O)O)C(=O)N[C@@H](CCCCN)C(=O)N[C@@H](CC(C)C)C(=O)N[C@@H](CCCCN)C(=O)N[C@@H](CCC(=O)O)C(=O)N[C@@H](Cc1c[nH]cn1)C(=O)N[C@@H](CC(C)C)C(=O)O [L-an] (H-[Ahx]KGWFKAMKSIAKFIAKEKLKEHL-OH)
anti-T. gondii activity after serum treatment compared to control untreated with serum (T. gondii tachyzoites [4]): no significant difference; also recorded: retained substantial anti-T. gondii activity | IC50 [5]: 30.9 µM | cytotoxicity to HFFs [5]: no significant difference

KGWFKAMKSIAKFIAKEKLKEHL [Lycosin-I]
anti-T. gondii activity after serum treatment compared to control untreated with serum (T. gondii tachyzoites [4]): significantly had reduced anti-T. gondii activity; also recorded: only slightly decreased | cytotoxicity to HFFs [5]: concentration-dependent cytotoxicity

CCCCCCCCCCCC(=O)N[C@@H](CCCCN)C(=O)NCC(=O)N[C@@H](Cc1c[nH]c2ccccc12)C(=O)N[C@@H](Cc1ccccc1)C(=O)N[C@@H](CCCCN)C(=O)N[C@@H](C)C(=O)N[C@@H](CCSC)C(=O)N[C@@H](CCCCN)C(=O)N[C@@H](CO)C(=O)N[C@H](C(=O)N[C@@H](C)C(=O)N[C@@H](CCCCN)C(=O)N[C@@H](Cc1ccccc1)C(=O)N[C@H](C(=O)N[C@@H](C)C(=O)N[C@@H](CCCCN)C(=O)N[C@@H](CCC(=O)O)C(=O)N[C@@H](CCCCN)C(=O)N[C@@H](CC(C)C)C(=O)N[C@@H](CCCCN)C(=O)N[C@@H](CCC(=O)O)C(=O)N[C@@H](Cc1c[nH]cn1)C(=O)N[C@@H](CC(C)C)C(=O)O)[C@@H](C)CC)[C@@H](C)CC [L-C12] (Lauroyl-KGWFKAMKSIAKFIAKEKLKEHL-OH)
IC50 [5]: 15.6 µM

CCCCCCCCCCCC(=O)N[C@@H](CCCCN)C(=O)NCC(=O)N[C@@H](Cc1c[nH]c2ccccc12)C(=O)N[C@@H](Cc1ccccc1)C(=O)N[C@@H](CCCCN)C(=O)N[C@@H](C)C(=O)N[C@@H](CCSC)C(=O)N[C@@H](CCCCN)C(=O)N[C@@H](CO)C(=O)N[C@H](C(=O)N[C@@H](C)C(=O)N[C@@H](CCCCN)C(=O)N[C@@H](Cc1ccccc1)C(=O)N[C@H](C(=O)N[C@@H](C)C(=O)N[C@@H](CCCCN)C(=O)N[C@@H](CCC(=O)O)C(=O)N[C@@H](CCCCN)C(=O)N[C@@H](CC(C)C)C(=O)N[C@@H](CCCCN)C(=O)N[C@@H](CCC(=O)O)C(=O)N[C@@H](Cc1cnc[nH]1)C(=O)N[C@@H](CC(C)C)C(=O)O)[C@@H](C)CC)[C@@H](C)CC [L-C12] (Lauroyl-KGWFKAMKSIAKFIAKEKLKEHL-OH)
anti-T. gondii activity after serum treatment compared to control untreated with serum (T. gondii tachyzoites [4]): no significant difference; also recorded: retained substantial anti-T. gondii activity | degradation after incubation in serum [6]: not degraded | cytotoxicity to HFFs [5]: higher cytotoxicity

NCCCCCC(=O)O [aminocaproic acid]
anti-T. gondii activity in vitro (tachyzoite mortality) [7]: no effect
